Experiments:
[1] = target: T1, GST tagged LXRbeta LBD (ligand binding domain) (Homo sapiens, UniProt P55055); experiment: LanthaScreen TR-FRET Liver X Receptor Coactivator Assay, LXR beta-LBD; type: biochemical; settings: relative to reference T0901317; for EC50: Inflection Point (potency), co-activator recruitment, read-out: LXR beta IP; for Emax: activity at max dose (efficacy), read-out: LXR beta act @ max dose (%)
T1 construct: purchased Invitrogen pv4658.pps
T1 sequence (P55055 222-460 limits assumed): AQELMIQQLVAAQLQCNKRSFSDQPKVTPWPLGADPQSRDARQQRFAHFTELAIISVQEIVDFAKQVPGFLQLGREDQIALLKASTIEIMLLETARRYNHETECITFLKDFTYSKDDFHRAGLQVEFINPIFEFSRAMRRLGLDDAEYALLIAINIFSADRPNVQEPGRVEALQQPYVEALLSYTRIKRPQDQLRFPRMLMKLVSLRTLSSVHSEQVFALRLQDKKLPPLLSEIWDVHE
How it was run: (§1)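 LXR LBD protein mixed with test compound, then fluorescein-labelled coactivator peptide plus terbium anti-GST antibody added; after room-temperature incubation, TR-FRET read. Inflection point and Emax derived from coactivator recruitment relative to reference dual agonist T0901317.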

[2] = target: T2, GST tagged LXRalpha LBD (ligand binding domain) (Homo sapiens, UniProt Q13133); experiment: LanthaScreen TR-FRET Liver X Receptor Coactivator Assay, LXR alpha-LBD; type: biochemical; settings: relative to reference T0901317; for EC50 / LXR alpha IP (nM): Inflection Point (potency), co-activator recruitment; for EC50: read-out: LXR alpha IP; for Emax: activity at max dose (efficacy), read-out: LXR alpha act @ max dose (%)
T2 construct: purchased Invitrogen pv4655
T2 sequence (Q13133 209-447 limits assumed): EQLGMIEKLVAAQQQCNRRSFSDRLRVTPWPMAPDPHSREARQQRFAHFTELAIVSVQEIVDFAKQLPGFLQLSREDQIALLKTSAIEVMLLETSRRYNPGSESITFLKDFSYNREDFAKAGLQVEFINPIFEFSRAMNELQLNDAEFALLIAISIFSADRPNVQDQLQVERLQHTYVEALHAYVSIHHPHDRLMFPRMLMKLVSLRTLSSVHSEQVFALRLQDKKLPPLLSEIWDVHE
How it was run: as §1

Row | Compound | EC50 [1] | Emax [1] | EC50 [2] | Emax [2] | LXR alpha IP (nM) [2]
1 | COC(=O)[C@@H]1CCCN1C(=O)c1ccc(N2CCC(C3CCN(C(=O)[C@](O)(c4ccccc4)C(F)(F)F)CC3)CC2)cc1Cl [Example E-22, methyl 1-[(2-chloro-4-{1′-[(2R)-3,3,3-trifluoro-2-hydroxy-2-phenylpropanoyl]-4,4′-bipiperidin-1-yl}phenyl)carbonyl]prolinate] | 437 nM | 81% | 1670 nM | 18% | 
2 | O=C(c1ccc(N2CCC(C3CCN(C(=O)[C@](O)(c4ccccc4)C(F)(F)F)CC3)CC2)cc1Cl)N1CCC(O)C1 (stereo partly drawn) [Example E-24, 1-[(2-chloro-4-{1′-[(2R)-3,3,3-trifluoro-2-hydroxy-2-phenylpropanoyl]-4,4′-bipiperidin-1-yl}phenyl)carbonyl]pyrrolidin-3-ol] | 323 nM | 76% | 3090 nM | 27% | 
3 | CC1CCCN1C(=O)c1ccc(N2CCC(C3CCN(C(=O)[C@](O)(c4ccccc4)C(F)(F)F)CC3)CC2)cc1Cl (stereo partly drawn) [Example E-25, (2R)-3-(1′-{3-chloro-4-[(2-methylpyrrolidin-1-yl)carbonyl]phenyl}-4,4′-bipiperidin-1-yl)-1,1,1-trifluoro-3-oxo-2-phenylpropan-2-ol] | 332 nM | 88% | 769 nM | 15% | 
4 | O=C(c1ccc(N2CCC(C3CCN(C(=O)[C@](O)(c4ccccc4)C(F)(F)F)CC3)CC2)cc1Cl)N1CC[C@H](F)C1 [Example E-26, (2R)-3-[1′-(3-chloro-4-{[(3S)-3-fluoropyrrolidin-1-yl]carbonyl}phenyl)-4,4′-bipiperidin-1-yl]-1,1,1-trifluoro-3-oxo-2-phenylpropan-2-ol] | 279 nM | 92% | 1450 nM | 25% | 
5 | CC1(C)CCN(C(=O)c2ccc(N3CCC(C4CCN(C(=O)[C@](O)(c5ccccc5)C(F)(F)F)CC4)CC3)cc2Cl)C1 [Example E-28, (2R)-3-(1′-{3-chloro-4-[(3,3-dimethylpyrrolidin-1-yl)carbonyl]phenyl}-4,4′-bipiperidin-1-yl)-1,1,1-trifluoro-3-oxo-2-phenylpropan-2-ol] | 200 nM | 57% |  | 15% | NO IP
6 | CCC1CCN(C(=O)c2ccc(N3CCC(C4CCN(C(=O)[C@](O)(c5ccccc5)C(F)(F)F)CC4)CC3)cc2Cl)C1 (stereo partly drawn) [Example E-29, (2R)-3-(1′-{3-chloro-4-[(3-ethylpyrrolidin-1-yl)carbonyl]phenyl}-4,4′-bipiperidin-1-yl)-1,1,1-trifluoro-3-oxo-2-phenylpropan-2-ol] | 383 nM | 63% |  | 13% | NO IP
7 | O=C(c1ccc(N2CCC(C3CCN(C(=O)[C@](O)(c4ccccc4)C(F)(F)F)CC3)CC2)cc1Cl)N1CC(F)(F)C1 [Example E-34, (2R)-3-(1′-{3-chloro-4-[(3,3-difluoroazetidin-1-yl)carbonyl]phenyl}-4,4′-bipiperidin-1-yl)-1,1,1-trifluoro-3-oxo-2-phenylpropan-2-ol] | 450 nM | 83% |  | 28% | NO IP
8 | COC1CN(C(=O)c2ccc(N3CCC(C4CCN(C(=O)[C@](O)(c5ccccc5)C(F)(F)F)CC4)CC3)cc2Cl)C1 [Example E-35, (2R)-3-(1′-{3-chloro-4-[(3-methoxyazetidin-1-yl)carbonyl]phenyl}-4,4′-bipiperidin-1-yl)-1,1,1-trifluoro-3-oxo-2-phenylpropan-2-ol] | 364 nM | 57% | 2460 nM | 19% | 
9 | O=C(c1ccc(N2CCC(C3CCN(C(=O)[C@](O)(c4ccccc4)C(F)(F)F)CC3)CC2)cc1Cl)N1CC(O)C1 [Example E-36, 1-[(2-chloro-4-{1′-[(2R)-3,3,3-trifluoro-2-hydroxy-2-phenylpropanoyl]-4,4′-bipiperidin-1-yl}phenyl)carbonyl]azetidin-3-ol] | 453 nM | 74% | 3820 nM | 23% | 
10 | O=C(c1ccc(N2CCC(C3CCN(C(=O)[C@](O)(c4ccccc4)C(F)(F)F)CC3)CC2)cc1Cl)N1CCCC2(CC2)C1 [Example E-37, (2R)-3-{1′-[4-(5-azaspiro[2.5]oct-5-ylcarbonyl)-3-chlorophenyl]-4,4′-bipiperidin-1-yl}-1,1,1-trifluoro-3-oxo-2-phenylpropan-2-ol] | 216 nM | 70% |  | 5% | NO IP
11 | CC1CCCN(C(=O)c2ccc(N3CCC(C4CCN(C(=O)[C@](O)(c5ccccc5)C(F)(F)F)CC4)CC3)cc2Cl)C1 (stereo partly drawn) [Example E-38, (2R)-3-(1′-{3-chloro-4-[(3-methylpiperidin-1-yl)carbonyl]phenyl}-4,4′-bipiperidin-1-yl)-1,1,1-trifluoro-3-oxo-2-phenylpropan-2-ol] | 276 nM | 57% |  | 0% | NO IP
12 | O=C(c1ccc(N2CCC(C3CCN(C(=O)[C@](O)(c4ccccc4)C(F)(F)F)CC3)CC2)cc1Cl)N1CC(n2cccn2)C1 [Example E-40, (2R)-3-[1′-(3-chloro-4-{[3-(1H-pyrazol-1-yl)azetidin-1-yl]carbonyl}phenyl)-4,4′-bipiperidin-1-yl]-1,1,1-trifluoro-3-oxo-2-phenylpropan-2-ol] | 297 nM | 52% |  | 39% | NO IP

Now those with a lower EC50 [1], led by results:

Row | EC50 [1] | Emax [1] | EC50 [2] | Emax [2] | LXR alpha IP (nM) [2] | Compound
13 | 182 nM | 79% | 2990 nM | 28% |  | O=C1CCN(C(=O)c2ccc(N3CCC(C4CCN(C(=O)[C@](O)(c5ccccc5)C(F)(F)F)CC4)CC3)cc2Cl)C1 [Example E-31]
14 | 144 nM | 57% | 2260 nM | 22% |  | COC(=O)C1CN(C(=O)c2ccc(N3CCC(C4CCN(C(=O)[C@](O)(c5ccccc5)C(F)(F)F)CC4)CC3)cc2Cl)C1 [Example E-32, methyl 1-[(2-chloro-4-{1′-[(2R)-3,3,3-trifluoro-2-hydroxy-2-phenylproanoyl]-4,4′-bipiperidin-1-yl}phenyl)carbonyl]azetidine-3-carboxylate]
15 | 143 nM | 74% | 1520 nM | 15% |  | CCC1CCCN1C(=O)c1ccc(N2CCC(C3CCN(C(=O)[C@](O)(c4ccccc4)C(F)(F)F)CC3)CC2)cc1Cl (stereo partly drawn) [Example E-30, (2R)-3-(1′-{3-chloro-4-[(2-ethylpyrrolidin-1-yl)carbonyl]phenyl}-4,4′-bipiperidin-1-yl)-1,1,1-trifluoro-3-oxo-2-phenylpropan-2-ol]
16 | 141 nM | 99% | 1430 nM | 43% |  | CC(C)(C)OC(=O)NCC1CN(C(=O)c2ccc(N3CCC(C4CCN(C(=O)[C@](O)(c5ccccc5)C(F)(F)F)CC4)CC3)cc2Cl)C1 [Example E-39, tert-butyl ({1-[(2-chloro-4-{1′-[(2R)-3,3,3-trifluoro-2-hydroxy-2-phenylpropanoyl]-4,4′-bipiperidin-1-yl}phenyl)carbonyl]azetidin-3-yl}methyl)carbamate]
17 | 125 nM | 72% | 1780 nM | 25% |  | O=C(c1ccc(N2CCC(C3CCN(C(=O)[C@](O)(c4ccccc4)C(F)(F)F)CC3)CC2)cc1Cl)N1CCC[C@@H]1CO [Example E-23, (2R)-3-[1′-(3-chloro-4-{[(2R)-2-(hydroxymethyl)pyrrolidin-1-yl]carbonyl}phenyl)-4,4′-bipiperidin-1-yl]-1,1,1-trifluoro-3-oxo-2-phenylpropan-2-ol]
18 | 118 nM | 74% | 1680 nM | 54% |  | O=C(NC1CN(C(=O)c2ccc(N3CCC(C4CCN(C(=O)[C@](O)(c5ccccc5)C(F)(F)F)CC4)CC3)cc2Cl)C1)c1ccccc1 [Example E-41, N-{1-[(2-chloro-4-{1′-[(2R)-3,3,3-trifluoro-2-hydroxy-2-phenylpropanoyl]-4,4′-bipiperidin-1-yl}phenyl)carbonyl]azetidin-3-yl}benzamide]
19 | 71 nM | 95% | 893 nM | 24% |  | CC(C)N(C)C(=O)c1ccc(N2CCC(C3CCN(C(=O)[C@](O)(c4ccccc4)C(F)(F)F)CC3)CC2)cc1Cl [Example E-33, 2-chloro-N-methyl-N-(1-methylethyl)-4-{1′-[(2R)-3,3,3-trifluoro-2-hydroxy-2-phenylpropanoyl]-4,4′-bipiperidin-1-yl}benzamide]
20 | 53 nM | 58% |  | 0% | NO IP | CC1CCC(C)N1C(=O)c1ccc(N2CCC(C3CCN(C(=O)[C@](O)(c4ccccc4)C(F)(F)F)CC3)CC2)cc1Cl (stereo partly drawn) [Example E-27, (2R)-3-(1′-{3-chloro-4-[(2,5-dimethylpyrrolidin-1-yl)carbonyl]phenyl}-4,4′-bipiperidin-1-yl)-1,1,1-trifluoro-3-oxo-2-phenylpropan-2-ol]
